Experiments:
CLK2 = CLK2 (Homo sapiens (Human), UniProt P49760); assay: biochemical; conditions: read-out: CLK2 (% Inh.), % inhibition at 3 μM
CLK1 = CLK1 (Homo sapiens (Human), UniProt P49759); assay: biochemical; conditions: read-out: CLK1 (% Inh.), % inhibition at 3 μM
Sequence of CLK1 (P49759 whole entry): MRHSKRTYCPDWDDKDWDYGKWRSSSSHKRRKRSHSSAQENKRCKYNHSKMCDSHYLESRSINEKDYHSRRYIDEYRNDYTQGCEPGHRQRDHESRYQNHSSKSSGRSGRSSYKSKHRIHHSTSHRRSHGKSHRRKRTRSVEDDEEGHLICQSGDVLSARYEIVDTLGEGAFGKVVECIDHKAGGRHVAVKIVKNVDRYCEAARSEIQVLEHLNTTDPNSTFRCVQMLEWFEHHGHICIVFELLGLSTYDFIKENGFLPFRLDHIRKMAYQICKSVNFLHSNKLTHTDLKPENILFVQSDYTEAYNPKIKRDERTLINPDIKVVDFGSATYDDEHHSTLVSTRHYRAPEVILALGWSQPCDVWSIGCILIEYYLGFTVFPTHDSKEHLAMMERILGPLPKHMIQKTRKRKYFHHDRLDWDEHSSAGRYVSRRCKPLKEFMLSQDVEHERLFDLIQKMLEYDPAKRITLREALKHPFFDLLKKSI

Sequence of CLK2 (P49760 whole entry): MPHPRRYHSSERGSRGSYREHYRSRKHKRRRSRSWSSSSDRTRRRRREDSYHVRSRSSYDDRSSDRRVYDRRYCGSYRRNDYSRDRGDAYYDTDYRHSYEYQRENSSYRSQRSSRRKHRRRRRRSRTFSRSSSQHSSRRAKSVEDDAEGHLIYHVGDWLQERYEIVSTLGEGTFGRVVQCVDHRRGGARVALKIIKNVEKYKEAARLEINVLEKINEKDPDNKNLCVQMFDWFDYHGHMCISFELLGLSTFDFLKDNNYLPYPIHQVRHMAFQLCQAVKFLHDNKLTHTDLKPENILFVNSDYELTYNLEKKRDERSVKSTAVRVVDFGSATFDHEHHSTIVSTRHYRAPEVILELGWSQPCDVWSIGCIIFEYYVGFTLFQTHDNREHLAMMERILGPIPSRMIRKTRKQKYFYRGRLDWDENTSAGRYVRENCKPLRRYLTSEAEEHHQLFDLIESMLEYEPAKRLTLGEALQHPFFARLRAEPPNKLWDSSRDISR

Structure (SMILES) | inhibition at 3 µM (CLK2) [%] | inhibition at 3 µM (CLK1) [%]
CNC(=O)c1ccc(Nc2nc(OC3CCOCC3)c3c(-c4ccc(O)cc4)c[nH]c3n2)c(OC)c1 [Compound 17, 4-(5-(4-hydroxyphenyl)-4-(tetrahydro-2H-pyran-4-yloxy)-7H-pyrrolo[2,3-d]pyrimidin-2-ylamino)-3-methoxy-N-methylbenzamide] | 98 | 97
COc1cc(C(=O)NCCO)ccc1Nc1nc(OC(C)C)c2c(-c3ccc4nc(C)oc4c3)c[nH]c2n1 [Compound 160, N-(2-hydroxyethyl)-4-(4-isopropoxy-5-(2-methylbenzo[d]oxazol-6-yl)-7H-pyrrolo[2,3-d]pyrimidin-2-ylamino)-3-methoxybenzamide] | 108 | 98
CNC(=O)c1ccc(Nc2nc(OC(C)C)c3c(-c4ccc(-c5ncc[nH]5)cc4)c[nH]c3n2)c(OC)c1 [Compound 193, 4-(5-(4-(1H-imidazol-2-yl)phenyl)-4-isopropoxy-7H-pyrrolo[2,3-d]pyrimidin-2-ylamino)-3-methoxy-N-methylbenzamide] | 99 | 100
CNC(=O)c1ccc(Nc2nc(O[C@H]3CCOC3)c3c(-c4ccc5nc(C)oc5c4)c[nH]c3n2)c(C)c1 [Compound 133, (S)-N,3-dimethyl-4-(5-(2-methylbenzo[d]oxazol-6-yl)-4-(tetrahydrofuran-3-yloxy)-7H-pyrrolo[2,3-d]pyrimidin-2-ylamino)benzamide] | 101 | 104
Cc1cc(C(=O)N(C)C)ccc1Nc1nc(OC2CCOCC2)c2c(-c3ccnc(C#N)c3)c[nH]c2n1 [Compound 140, 4-(5-(2-cyanopyridin-4-yl)-4-(tetrahydro-2H-pyran-4-yloxy)-7H-pyrrolo[2,3-d]pyrimidin-2-ylamino)-N,N,3-trimethylbenzamide] | 103 | 97
Cc1nc2ccc(-c3c[nH]c4nc(Nc5cn(C)nc5C)nc(OC5CCCC5)c34)cc2o1 [Compound 307, 4-(cyclopentyloxy)-N-(1,3-dimethyl-1H-pyrazol-4-yl)-5-(2-methylbenzo[d]oxazol-6-yl)-7H-pyrrolo[2,3-d]pyrimidin-2-amine] | 103 | 99
CNC(=O)c1ccc(Nc2nc(NC(C)C)c3c(-c4ccc5nc(C)oc5c4)c[nH]c3n2)c(OC)c1 [Compound 202, 4-(4-(isopropylamino)-5-(2-methylbenzo[d]oxazol-6-yl)-7H-pyrrolo[2,3-d]pyrimidin-2-ylamino)-3-methoxy-N-methylbenzamide] | 99 | 99
CNC(=O)c1ccc(Nc2nc(OC(C)C)c3c(-c4ccnc(C)c4)c[nH]c3n2)c(OC)c1 [Compound 201, 4-(4-isopropoxy-5-(2-methylpyridin-4-yl)-7H-pyrrolo[2,3-d]pyrimidin-2-ylamino)-3-methoxy-N-methylbenzamide] | 103 | 100
CNC(=O)c1ccc(Nc2nc(O[C@H]3CCOC3)c3c(-c4ccc5nc(C)oc5c4)c[nH]c3n2)c(OC)c1 [Compound 169, (S)-3-methoxy-N-methyl-4-(5-(2-methylbenzo[d]oxazol-6-yl)-4-(tetrahydrofuran-3-yloxy)-7H-pyrrolo[2,3-d]pyrimidin-2-ylamino)benzamide] | 105 | 100
Cc1nc2ccc(-c3c[nH]c4nc(Nc5cnn(CC(C)(C)O)c5Cl)nc(OC5CCCC5)c34)cc2o1 [Compound 371, 1-(5-chloro-4-(4-(cyclopentyloxy)-5-(2-methylbenzo[d]oxazol-6-yl)-7H-pyrrolo[2,3-d]pyrimidin-2-ylamino)-1H-pyrazol-1-yl)-2-methylpropan-2-ol] | 100 | 100
CNC(=O)c1ccc(Nc2nc(OC3CCOCC3)c3c(-c4ccn(C)n4)c[nH]c3n2)c(OC)c1 [Compound 163, 3-methoxy-N-methyl-4-(5-(1-methyl-1H-pyrazol-3-yl)-4-(tetrahydro-2H-pyran-4-yloxy)-7H-pyrrolo[2,3-d]pyrimidin-2-ylamino)benzamide] | 102 | 100
COc1cc(C(=O)NCCO)ccc1Nc1nc(OC2CCOCC2)c2c(-c3ccc4nc(C)oc4c3)c[nH]c2n1 [Compound 213, N-(2-hydroxyethyl)-3-methoxy-4-(5-(2-methylbenzo[d]oxazol-6-yl)-4-(tetrahydro-2H-pyran-4-yloxy)-7H-pyrrolo[2,3-d]pyrimidin-2-ylamino)benzamide] | 100 | 99
Cc1nc2ccc(-c3c[nH]c4nc(Nc5cnn(C)c5C)nc(OC5CCCC5)c34)cc2o1 [Compound 296, 4-(cyclopentyloxy)-N-(1,5-dimethyl-1H-pyrazol-4-yl)-5-(2-methylbenzo[d]oxazol-6-yl)-7H-pyrrolo[2,3-d]pyrimidin-2-amine] | 104 | 101
CNC(=O)c1ccc(Nc2nc(OC3CCOCC3)c3c(-c4ccc(-c5nc(C)c[nH]5)cc4)c[nH]c3n2)c(OC)c1 [Compound 207, 3-methoxy-N-methyl-4-(5-(4-(4-methyl-1H-imidazol-2-yl)phenyl)-4-(tetrahydro-2H-pyran-4-yloxy)-7H-pyrrolo[2,3-d]pyrimidin-2-ylamino)benzamide] | 99 | 99
CC[C@H](C)Oc1nc(Nc2ccc(C(=O)NC)cc2OC)nc2[nH]cc(-c3ccc4nc(C)oc4c3)c12 [Compound 204, (S)-4-(4-sec-butoxy-5-(2-methylbenzo[d]oxazol-6-yl)-7H-pyrrolo[2,3-d]pyrimidin-2-ylamino)-3-methoxy-N-methylbenzamide] | 99 | 98
CNC(=O)c1ccc(Nc2nc(OC3CCC(C)(O)CC3)c3c(-c4ccc5nc(C)oc5c4)c[nH]c3n2)c(C)c1 (stereo not shown) [Compound 150, 4-(4-((1r,4r)-4-hydroxy-4-methylcyclohexyloxy)-5-(2-methylbenzo[d]oxazol-6-yl)-7H-pyrrolo[2,3-d]pyrimidin-2-ylamino)-N,3-dimethylbenzamide] | 111 | 99
COc1nc(Nc2ccc(C(=O)N(C)C)cc2Cl)nc2[nH]cc(-c3ccncc3)c12 [Compound 157, 3-chloro-4-(4-methoxy-5-(pyridin-4-yl)-7H-pyrrolo[2,3-d]pyrimidin-2-ylamino)-N,N-dimethylbenzamide] | 105 | 95
